Measured values as given in patent publication US7875619B2, “Hetero substituted sodium channel blockers” (Parion Sciences, Inc., priority 2004, dated 2011).
Structures can show the parent of a compound that is named as a salt.

How the values were obtained:
[1] = molecular target: T1, sodium channel (ENaC), canine bronchial epithelia (Canis lupus familiaris, UniProt A0A8I3MKE6+A0A8I3Q679+Q95165); assay: In vitro measure of sodium channel blocking activity: inhibition of short circuit current (ISC) in airway epithelial monolayers in Ussing chambers; format: cell-based; settings: mean of N runs; for Fold Amiloride** (PSA 4022 = 100) Mean: relative potency for PSA 4022 = 100 using EC50 from PSA 4022 in same run
T1 construct: endogenous in cells; host or cells: primary canine bronchial epithelial cells cultured at air-liquid interface, mounted in Ussing chambers
T1 sequence (A0A8I3Q679 1-649): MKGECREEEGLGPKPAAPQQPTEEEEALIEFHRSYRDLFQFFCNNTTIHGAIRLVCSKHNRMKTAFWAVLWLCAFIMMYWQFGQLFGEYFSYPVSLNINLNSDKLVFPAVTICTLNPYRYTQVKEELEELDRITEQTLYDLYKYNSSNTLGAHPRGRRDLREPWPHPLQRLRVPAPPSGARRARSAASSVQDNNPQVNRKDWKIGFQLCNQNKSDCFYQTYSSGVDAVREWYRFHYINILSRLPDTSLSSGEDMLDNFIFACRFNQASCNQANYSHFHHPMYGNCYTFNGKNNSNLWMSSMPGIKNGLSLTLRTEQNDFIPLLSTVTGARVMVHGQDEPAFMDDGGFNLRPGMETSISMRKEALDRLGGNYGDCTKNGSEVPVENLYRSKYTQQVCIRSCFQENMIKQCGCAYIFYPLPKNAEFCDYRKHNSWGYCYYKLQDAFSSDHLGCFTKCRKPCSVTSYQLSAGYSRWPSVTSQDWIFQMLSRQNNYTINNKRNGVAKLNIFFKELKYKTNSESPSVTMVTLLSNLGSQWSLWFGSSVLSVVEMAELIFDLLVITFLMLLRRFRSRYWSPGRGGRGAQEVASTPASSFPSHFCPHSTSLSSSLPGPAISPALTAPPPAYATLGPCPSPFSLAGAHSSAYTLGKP
T1 sequence (Q95165 1-641): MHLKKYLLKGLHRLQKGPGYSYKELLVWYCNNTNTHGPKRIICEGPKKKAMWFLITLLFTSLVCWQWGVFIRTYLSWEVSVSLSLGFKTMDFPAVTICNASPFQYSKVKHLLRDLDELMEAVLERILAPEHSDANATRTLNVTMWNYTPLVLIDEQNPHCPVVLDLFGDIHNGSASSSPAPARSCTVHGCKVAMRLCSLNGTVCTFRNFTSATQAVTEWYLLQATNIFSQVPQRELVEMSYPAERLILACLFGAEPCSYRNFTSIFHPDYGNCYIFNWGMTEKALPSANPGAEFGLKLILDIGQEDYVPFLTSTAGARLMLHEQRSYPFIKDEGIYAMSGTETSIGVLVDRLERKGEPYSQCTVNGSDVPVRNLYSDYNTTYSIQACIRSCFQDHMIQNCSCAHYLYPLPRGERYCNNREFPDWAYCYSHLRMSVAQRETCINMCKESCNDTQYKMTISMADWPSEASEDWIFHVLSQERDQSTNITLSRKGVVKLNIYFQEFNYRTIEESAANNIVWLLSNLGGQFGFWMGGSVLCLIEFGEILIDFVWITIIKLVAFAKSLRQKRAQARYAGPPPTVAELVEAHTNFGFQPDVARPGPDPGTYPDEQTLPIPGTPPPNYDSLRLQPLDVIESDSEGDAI
T1 sequence (A0A8I3MKE6 1-646): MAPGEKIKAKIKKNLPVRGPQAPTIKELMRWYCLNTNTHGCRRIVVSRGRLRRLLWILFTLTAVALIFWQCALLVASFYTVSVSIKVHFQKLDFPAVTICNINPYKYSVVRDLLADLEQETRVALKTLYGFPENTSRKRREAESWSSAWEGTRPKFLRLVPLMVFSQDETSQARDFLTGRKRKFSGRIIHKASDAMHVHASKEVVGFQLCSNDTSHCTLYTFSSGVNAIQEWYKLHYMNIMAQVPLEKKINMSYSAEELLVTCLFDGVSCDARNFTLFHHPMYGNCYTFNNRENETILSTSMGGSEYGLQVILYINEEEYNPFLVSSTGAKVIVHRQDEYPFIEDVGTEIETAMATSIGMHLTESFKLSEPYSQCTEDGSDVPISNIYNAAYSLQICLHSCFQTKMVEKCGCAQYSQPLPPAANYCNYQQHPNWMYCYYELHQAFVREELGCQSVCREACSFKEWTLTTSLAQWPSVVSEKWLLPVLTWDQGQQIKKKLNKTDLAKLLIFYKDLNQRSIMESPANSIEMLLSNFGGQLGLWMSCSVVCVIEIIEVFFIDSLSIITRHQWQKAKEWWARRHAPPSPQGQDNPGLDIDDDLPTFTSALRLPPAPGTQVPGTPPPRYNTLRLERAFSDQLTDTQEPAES
Method: One assay used to assess mechanism of action and/or potency of the compounds of the present invention involves the determination of lumenal drug inhibition of airway epithelial sodium currents measured under short circuit current (ISC) using airway epithelial monolayers mounted in Ussing chambers. Cells obtained from freshly excised human, dog, sheep or rodent airways are seeded onto porous 0.4 micron Snapwell™ Inserts (CoStar), cultured at air-liquid interface (ALI) conditions in hormonally defined media, and assayed for sodium transport activity (ISC) while bathed in Krebs Bicarbonate Ringer (KBR) in Using chambers. All test drug additions are to the lumenal bath with half-log dose addition protocols (from 1×10^−11 M to 3×10^−5M), and the cumulative change in ISC (inhibition) recorded. All drugs are prepared in dimethyl sulfoxide as stock solutions at a concentration of 1×10^−2 M and stored at −20° C. […] After the maximal concentration (5×10^−5 M) is administered, the lumenal bath is exchanged three times with fresh drug-free KBR solution, and the resultant ISC measured after each wash for approximately 5 minutes in duration. Reversibility is defined as the percent return to the baseline value for sodium current after the third wash. All data from the voltage clamps are collected via a computer interface and analyzed off-line.
Dose-effect relationships for all compounds are considered and analyzed by the Prism 3.0 program.
PSA 4022 was also tested in each assay as a positive control.

melting point	EC50 [1]	Fold Amiloride** (PSA 4022 = 100) Mean [1]	SMILES
88 to 90 °C			COC(=O)C(N)CCOc1ccc(CCCCNC(=N)NC(=O)c2nc(Cl)c(N)nc2N)cc1 (stereo not shown) (as salt: hydrochloride) [PSA 17587, 2-amino-4-(4-{4-[N′-(3,5-diamino-6-chloropyrazine-2-carbonyl)-guanidino]butyl}phenoxy)butyric acid methyl ester hydrochloride]
178 to 180 °C	29.3 nM	34.8	N=C(NCCCCc1ccc(OCCC(N)C(=O)O)cc1)NC(=O)c1nc(Cl)c(N)nc1N (stereo not shown) [PSA 17666, 2-amino-4-(4-{4-[N′-(3,5-diamino-6-chloropyrazine-2-carbonyl)-guanidino]butyl}phenoxy)butyric acid]
	32.1 nM	30.0	N=C(NCCCCc1ccc(OC[C@H](N)C(=O)O)cc1)NC(=O)c1nc(Cl)c(N)nc1N (stereo in doubt) [PSA 10941, 2-amino-3-(4-{4-[N′-(3,5-diamino-6-chloropyrazine-2-carbonyl)-guanidino]butyl}phenoxy)propionic acid]

Continued, compound first:

SMILES	melting point	EC50 [1]	Fold Amiloride** (PSA 4022 = 100) Mean [1]
COC(=O)[C@H](N)CCCc1ccc(CCCCNC(=N)NC(=O)c2nc(Cl)c(N)nc2N)cc1 [PSA 19603, 2-(R)-amino-5-(4-{4-[N′-(3,5-diamino-6-chloropyrazine-2-carbonyl)-guanidino]butyl}phenyl)pentanoic acid methyl ester]	76 to 79 °C	32.3 nM	39.4
N=C(NCCCCc1ccc(CCC[C@@H](N)C(=O)O)cc1)NC(=O)c1nc(Cl)c(N)nc1N [PSA 23184, 2-(R)-amino-5-(4-{4-[N′-(3,5-diamino-6-chloropyrazine-2-carbonyl)-guanidino]butyl}phenyl)pentanoic acid]	190 to 192 °C (dec.)	17 nM	43.3
N=C(NCCCCc1ccc(OCCNCC(N)C(N)=O)cc1)NC(=O)c1nc(Cl)c(N)nc1N (stereo not shown) (as salt: hydrochloride) [PSA 18704, 2-amino-3-[2-(4-{4-[N′-(3,5-diamino-6-chloropyrazine-2-carbonyl)-guanidino]butyl}phenoxy)ethylamino]propionamide tri-hydrochloride]	160 °C		
N=C(NCCCCc1ccc(NC[C@@H](O)CO)cc1)NC(=O)c1nc(Cl)c(N)nc1N [PSA 16722, N-(3,5-diamino-6-chloropyrazine-2-carbonyl)-N′-{4-[4-((2R)-2,3-dihydroxypropylamino)phenyl]butyl}guanidine]		22.8 nM	50.5
C[N+](C)(C)CCOc1ccc(CCCCNC(=N)NC(=O)c2nc(Cl)c(N)nc2N)cc1.Cl.[Cl-] [PSA 11223, N-(3,5-diamino-6-chloropyrazine-2-carbonyl)-N′-{4-[4-(2-chlorotrimethylammonium)ethoxyphenyl]butyl}guanidine hydrochloride]		14.7 nM	79.6
Cl.N=C(N)NCC(O)COc1ccc(CCCCNC(=N)NC(=O)c2nc(Cl)c(N)nc2N)cc1 (stereo not shown) [PSA 11975, N-(3,5-diamino-6-chloropyrazine-2-carbonyl)-N′-{4-[4-(3-guanidino-2-hydroxypropoxy)phenyl]butyl}guanidine hydrochloride]		4.85 nM	287
